Experimental data as given in PMC11167338, “Exploring the impact of trifluoromethyl (–CF3) functional group on the anti-cancer activity of isoxazole-based molecules: design, synthesis, biological evaluation and molecular docking analysis” (RSC Advances, 2024).

Assays:
PC-3 = test: MTT anti-proliferative assay on PC-3; assay type: cell-based, human; details: for IC50: Homo sapiens, PC-3, MTT, 48 hours treatment, mean ± SD (n = 2)
Experimental: (§1) All synthesized molecules were tested for their anticancer activity using the MTT assay protocol against the murine mammary carcinoma cell line (4T1), the human breast cancer (MCF-7), and the prostatic small cell carcinoma (PC-3). These compounds were then assessed for their IC50 determination at various concentrations. According to this finding, all synthesized compounds have the ability to inhibit the proliferation of a variety of cancer cell lines. […] It is more biased for MCF-7 cells over other cancer cells tested. Further, we contemplated conducting additional research to assess their anti-cancer effectiveness and mechanism (Fig. 3).
(§2) The mouse triple-negative breast cancer cell line (4T1), a human luminal A breast cancer cell line (MCF-7), a human prostate cancer cell line (PC-3), and a normal human embryonic kidney cell line (HEK-293) were procured from the National Center for Cell Science (NCCS, Pune, India). Dulbecco's Modified Eagle Medium (DMEM) (Himedia Laboratories Pvt Ltd, Mumbai, India) was used to cultivate MCF-7, 4T1, PC-3, and HEK-293 cells. All the mentioned cell lines were cultured in Dulbecco's Modified Eagle Medium (DMEM) supplemented with 10% heat-inactivated fetal bovine serum (Himedia Laboratories Pvt Ltd, Mumbai, India) and 1% antibiotic (Pen strep: A001), Himedia Laboratories Pvt Ltd, Mumbai, India. Cells were grown in a humidified environment with 5% CO2 at 37 °C. The experiment was performed using the yellow dye MTT [3-(4,5-dimethylthiazol-2-yl)-2, 5-diphenyltetrazolium bromide].
(§3) The MTT assay protocol was used to determine the IC50 values of the final compounds against different types of cancer cell lines and their selectivity over normal human cell lines. Dilutions of various concentrations were made from the compounds' DMSO stock solutions in the appropriate media. With a control solution of less than 1% DMSO in the appropriate media, dilutions from 200 μM to 0.781 μM concentrations were prepared using the serial dilution method. Cells were subcultured in their respective complete media according to the ATCC protocol before being seeded on a sterile 96-well plate with around 100 μL per well and a cell density of about 1 × 10^4 cells per well and incubated overnight. The medium was aspirated the following day, and adherent cells were treated with the respective concentrations 200 μM to 0.781 μM. The cells were then cultured for 48 hours in presence of compounds in the growth medium. The medium was aspirated post-treatment, and 100 μL of a 5 mg mL^−1 MTT solution in phenol red-free media was added. This mixture was then incubated for around 3 hours to check for the production of formazan crystals. The MTT solution was withdrawn, and 150 μL of DMSO was added to the wells to dissolve the generated crystals. The absorbance was measured at 570 nm and 650 nm. The percent cell viability was calculated for the IC50 values using GraphPad Prism™ version 8.0.1, and the results were shown as a dose–response curve.

MCF-7 = test: MTT anti-proliferative assay on MCF-7; assay type: cell-based, human; details: for IC50: MTT, 48 hours treatment, mean ± SD (n = 2)
Experimental: as §1, §2, §3

4T1 = test: MTT anti-proliferative assay on 4T1; assay type: cell-based, mouse; details: for IC50: Mus musculus, 4T1, MTT, 48 hours treatment, mean ± SD (n = 2)
Experimental: as §1, §2, §3

HEK-293 = test: MTT cytotoxicity on normal HEK-293 cells; assay type: cell-based; details: Homo sapiens, HEK293, normal cell line, 48 hours treatment, mean ± SD (n = 2)
Text: We also investigated their in vitro cytotoxicity against a normal human embryonic kidney (HEK-293) cell line to determine their IC50.
as §2, §3

MCF-7 cells [1] = test: Intracellular ROS generation (DCFH-DA); assay type: cell-based, human; details: for Fluorescence intensity (DCFH-DA, ImageJ): MCF-7, 48 h, IC50 dose
Text: This can result from the increased metabolic demands of rapidly dividing cancer cells and mitochondrial dysfunction. Elevated ROS levels can also damage DNA, contributing to genomic instability and the development of genetic mutations that drive cancer progression. Chemotherapy drugs, for example, can generate ROS as a byproduct of their mechanism of action, causing increase DNA damage and cell death in cancer cells. As a result, we investigated whether the compound 2g could cause ROS production within cancer cells.
The generation of reactive oxygen species in MCF-7 cells was investigated using the 2-7-dichlorodihydroflourescein diacetate (DCFH-DA) assay. The non-fluorescent DCFH-DA enters the cells, where cellular esterase cleaves off the acetyl groups to produce DCFH. ROS transform the molecule from DCFH to DCF, which produces green light. […] Following incubation, old medium was removed, and cells were treated with 10 μM DCFH-DA (S0033-Beyotime) in accordance with the recommended technique for 10 min at 37 °C in complete darkness. The intensity of fluorescence was then measured with a Laser Scanning Confocal Microscope (LSCM) DMI8 (Leica Microsystems, Germany) at 63× magnification at 485 nm and 535 nm for excitation and emission wavelengths. […] In the meantime, the increase in fluorescence intensity was determined in comparison to the control. Image J was used to calculate the relative fluorescence intensity (%). One-way ANOVA was used to determine significance, and the graph was created in GraphPad Prism™ version 8.0.1.

MCF-7 cells [2] = test: Cell cycle analysis (PI, flow cytometry); assay type: cell-based, human; details: MCF-7, 48 hours, at IC50 concentration
Experimental: In addition to the apoptosis assay, the cell cycle progression of MCF-7 cells was also investigated using the compound 2g. The cell population at different cell cycle phases was assessed using flow cytometry. […] These findings highlight that the lead compound 2g specifically impacts cell cycle regulation in the early phase compared to control and standard compound-treated cells (Fig. 6).
Flow cytometry was used to study the cell cycle of compound 2g and BG-45 using the BDAria™ III, a BD biosciences equipment, and the data was processed using Flow Jo software. For this objective, 5.0 × 10^4 MCF-7 cells were seeded onto 12 well plates and incubated overnight. The media was aspirated the other day, and the treatment was continued for another 48 hours after adding the required concentrations of compound 2g and BG-45 to the aspirated media. Following the treatment, the sample wells were rinsed with ice-cold PBS, trypsinized, and collected as a cell pellet. After two ice-cold PBS washes, the pellet was fixed with a dropwise addition of 70% ice-cold ethanol, which was then gently vortexed to create a single-cell suspension. Overnight, the fixed cells were stored at −20 °C. The samples were then centrifuged, and the resulting cell pellet was resuspended in 500 μL of the staining solution made from 20% w/v RNase, 2% w/v PI, and roughly 0.1% v/v Triton X 100 solution in PBS. The dissolved samples were examined using flow cytometry in the BDAria™ III, BD Biosciences, after being incubated for 30 min at room temperature in the dark.

MCF-7 cells [3] = test: Annexin-V/FITC-PI apoptosis assay (flow cytometry); assay type: cell-based, human; details: MCF-7, 48 h, at in vitro IC50
Experimental: Several studies have reported that anticancer drug molecules employ their cytotoxicity induced cell death via apoptotic pathways. […] These findings imply that the programmed cell death mechanism generated by the lead compound 2g causes considerable apoptosis in cancer cells.
In MCF-7 cells, an apoptosis assay was done using a TACs/Annexin V kit from Biolegend, USA. MCF-7 cells were seeded with a density of 5.0 × 10^4 cells per well in a flat-bottomed 12-well plate and allowed overnight for attachment. Following media aspiration, 48 hours of treatment with compound 2g and BG-45 at their in vitro IC50 values in MCF-7 cells were performed in triplicate. The cells were then trypsinized after being rinsed twice with ice-cold PBS. The trypsinized cells were then collected, centrifuged, and the obtained cell pellet was washed with ice-cold PBS before being resuspended in 100 μL of freshly prepared Annexin V reagent, which included 10 μL of 10× binding buffer, 1 μL of FITC, 10 μL of PI, and made up to 100 μL with double distilled water. Following a 30 minutes dark incubation period, these samples were diluted to 500 μL using 400 μL of 1× binding buffer. Following incubation, the samples were examined using flow cytometry (BDAria™ III, BD biosciences).

MCF-7 cells [4] = test: Nuclear staining assay (DAPI and AO); assay type: cell-based, human; details: MCF-7, IC50, 48 hours, compared to control and BG-45
Experimental: A nuclear staining assay was done using DAPI and AO as staining dyes to evaluate the phenomena of apoptosis in cancer cells under a laser scanning confocal microscope (LSCM). […] The fluorescence pattern in AO staining changed from green (normal cellular DNA) to orange (nicked cellular DNA).
To measure the degree of cancer cell disintegration, a nuclear staining experiment was performed in MCF-7 cells using the lead compound 2g and the reference compound BG-45. […] The 12-well plate was incubated for 48 hours after treatment. The cells were fixed with 4% paraformaldehyde and then stained with DAPI and acridine orange. The degree of nuclear staining was examined using a Laser Scanning Confocal Microscope (LSCM) DMI8 (Leica Microsystems, Germany) at 63× magnification. Image J was used to calculate the percentage apoptosis. One-way ANOVA was used to determine significance, and the graph was plotted in GraphPad Prism™ version 8.0.1.

Row | Compound | IC50 (PC-3) | IC50 (MCF-7; Homo sapiens, MCF7, 48 h) | IC50 (4T1) | IC50 (HEK-293) | IC50 (MCF-7) | selectivity for other cancer cell lines over HEK-293 (PC-3; second value, fits PC-3 by ratio of Table 1 IC50) | Fluorescence intensity (DCFH-DA, ImageJ) (MCF-7 cells [1]) | relative fluorescence intensity compared to the control (MCF-7 cells [1]; MCF-7, IC50 dose) | cell population in G0/G1 phase (MCF-7 cells [2]) | cell population in G2/M phase (MCF-7 cells [2]) | cell population in S phase (MCF-7 cells [2]) | total apoptotic percentage (Q2 and Q4) (MCF-7 cells [3]) | nuclear morphology by DAPI and AO staining (MCF-7 cells [4]) | times more active than non-trifluoromethylated analogue 14 (MCF-7; MCF-7 IC50 compared) | selectivity for MCF-7 cells over HEK-293 (MCF-7; ratio of IC50 values) | selectivity for other cancer cell lines over HEK-293 (4T1; first value, fits 4T1 by ratio of Table 1 IC50) | melting point
1 | COc1ccc(-c2cc(-c3cccs3)on2)cc1OC [Compound 14, 3-(3,4-dimethoxyphenyl)-5-(thiophen-2-yl)isoxazole, reference compound] | 30.21 ± 0.22 µM | 19.72 ± 0.16 µM | 48.39 ± 0.19 µM | 131.5 ± 0.13 µM |  |  |  |  |  |  |  |  |  |  |  |  | 
2 | FC(F)(F)c1c(-c2cccs2)noc1-c1c[nH]cc1-c1cccs1 [Compound 5, 3-(thiophen-2-yl)-5-(4-(thiophen-2-yl)-1H-pyrrol-3-yl)-4-(trifluoromethyl)isoxazole] | 9.56 ± 0.18 µM | 3.09 µM | 14.96 ± 0.13 µM | 84.86 ± 0.19 µM | 3.09 ± 0.11 µM |  |  |  |  |  |  |  |  |  |  |  | 
3 | COc1ccc(-c2noc(-c3cccs3)c2C(F)(F)F)cc1OC [Compound 2g, 3-(3,4-dimethoxyphenyl)-5-(thiophen-2-yl)-4-(trifluoromethyl)isoxazole] | 7.16 ± 0.18 µM | 2.64 µM | 8.75 ± 0.09 µM | 81.2 ± 0.17 µM | 2.63 ± 0.15 µM | 11.3 fold | 31.63 | considerable increase | 68.6% | 31.5% | 1.11% | 55.3 ± 0.9% | notable variation in cell shape and morphology | ~8 times | 30.8 fold | 9.2 fold | 
4 | FC(F)(F)c1c(-c2cccs2)noc1-c1ccco1 [Compound 2e] | 11.6 ± 0.14 µM | 5.48 µM | 23.5 ± 0.21 µM | 94.55 ± 0.2 µM | 5.48 ± 0.14 µM |  |  |  |  |  |  |  |  |  |  |  | 66 to 70 °C
5 | FC(F)(F)c1c(-c2cccs2)noc1-c1ccccc1 [Compound 2b] | 13.6 ± 0.17 µM | 9.76 µM | 35.36 ± 0.19 µM | 103.3 ± 0.17 µM | 9.76 ± 0.09 µM |  |  |  |  |  |  |  |  |  |  |  | 65 to 69 °C
6 | c1ccc(-c2cc(-c3cccs3)on2)cc1 [Compound 9, 3-phenyl-5-(thiophen-2-yl)isoxazole] | 14.5 ± 0.17 µM | 10 µM | 36.24 ± 0.2 µM | 109.3 ± 0.19 µM | 9.99 ± 0.1 µM |  |  |  |  |  |  |  |  |  |  |  | 
7 | FC(F)(F)c1c(-c2cccc3ccccc23)noc1-c1cccs1 [Compound 2d] | 15.59 ± 0.14 µM | 10.6 ± 0.19 µM | 37.18 ± 0.22 µM | 111.8 ± 0.17 µM |  |  |  |  |  |  |  |  |  |  |  |  | 
8 | c1ccc(-c2cc(-c3ccccc3)on2)cc1 [Compound 7, 3,5-diphenylisoxazole] | 17.42 ± 0.17 µM | 13 µM | 41.58 ± 0.21 µM | 118.7 ± 0.21 µM | 13.03 ± 0.13 µM |  |  |  |  |  |  |  |  |  |  |  | 
9 | FC(F)(F)c1c(-c2ccccc2)noc1-c1ccccc1 [Compound 2a] | 16.14 ± 0.15 µM | 11.3 µM | 37.83 ± 0.2 µM | 114.9 ± 0.15 µM | 11.3 ± 0.13 µM |  |  |  |  |  |  |  |  |  |  |  | 60 to 65 °C
10 | FC(F)(F)c1c(-c2ccco2)noc1-c1cccs1 [Compound 2f] | 10.3 ± 0.15 µM | 5.32 µM | 18.12 ± 0.15 µM | 86.98 ± 0.23 µM | 5.32 ± 0.19 µM |  |  |  |  |  |  |  |  |  |  |  | 
11 | Nc1ccccc1NC(=O)c1cnccn1 [BG-45, reference compound] | 28.67 ± 0.14 µM | 43.6 µM | 59.14 ± 0.17 µM | 144.56 ± 0.14 µM | 43.55 ± 0.18 µM |  | 18.02 |  | 63.6% | 24.4% | 14.2% | 16.4 ± 1.1% |  |  |  |  | 
12 | FC(F)(F)c1c(-c2cccs2)noc1/C=C/c1cccs1 [Compound 4, (E)-3-(thiophen-2-yl)-5-(2-(thiophen-2-yl)vinyl)-4-(trifluoromethyl)isoxazole] | 17.99 ± 0.13 µM | 13.7 µM | 44.36 ± 0.2 µM | 122 ± 0.16 µM | 13.71 ± 0.13 µM |  |  |  |  |  |  |  |  |  |  |  | 
13 | FC(F)(F)c1c(-c2ccccc2)noc1-c1cccs1 [Compound 2c] | 11.7 ± 0.16 µM | 8.19 ± 0.12 µM | 28.78 ± 0.19 µM | 98.76 ± 0.24 µM |  |  |  |  |  |  |  |  |  |  |  |  | 
